According to ChEMBL document CHEMBL1124522, “Synthesis and antitumor activity of 5-deaza-5,6,7,8-tetrahydrofolic acid and its N10-substituted analogues” (J Med Chem, 1989):
Values joined by “and” are separate entries in the source; they are usually repeats but may differ in a detail not shown here. Equal entries are not always repeated.

Columns and labels:
[1] = system: 6C3HED; assay: (§1) Percent inhibition against 6C3HED lymphosarcoma at dose 100 mg/kg in C3H mice; type: functional, Mus musculus
[2] = system: 6C3HED; assay: (§2) Percent inhibition against 6C3HED lymphosarcoma at dose 12.5 mg/kg in C3H mice; type: functional, Mus musculus
[3] = system: 6C3HED; assay: Percent inhibition against 6C3HED lymphosarcoma at dose 200 mg/kg in C3H mice; type: functional; conditions: Mus musculus
[4] = system: 6C3HED; assay: (§3) Percent inhibition against 6C3HED lymphosarcoma at dose 25 mg/kg in C3H mice; type: functional, Mus musculus
[5] = system: 6C3HED; assay: (§4) Percent inhibition against 6C3HED lymphosarcoma at dose 50 mg/kg in C3H mice; type: functional, Mus musculus
[6] = In vivo anti tumor activity (toxic/total) at dose 50 mg/kg in C3H mice with transplantable murine solid tumor 6C3HED lymphosarcoma, doses administered intraperitoneally on days 1,3,5,7 and 9;Compound was tested on 10 mice.; type: functional, Mus musculus; conditions: route intraperitoneal
[7] = In vivo antitumor activity (toxic/total) at dose 100 mg/kg in C3H mice with transplantable murine solid tumor C3H mammary adenocarcinoma, doses administered intraperitoneally on days 1,3,5,7 and 9;Compound was tested on 10 mice.; type: functional, Mus musculus; conditions: route intraperitoneal
[8] = In vivo antitumor activity (toxic/total) at dose 12.5 mg/kg in C3H mice with transplantable murine solid tumor C3H mammary adenocarcinoma, doses administered intraperitoneally on days 1,3,5,7 and 9;Compound was tested on 10 mice.; type: functional, Mus musculus; conditions: route intraperitoneal
[9] = In vivo antitumor activity (toxic/total) at dose 12.5 mg/kg in C3H mice with transplantable murine solid tumor C3H mammary adenocarcinoma; Compound was tested on 10 mice.; type: functional, Mus musculus
[10] = In vivo antitumor activity (toxic/total) at dose 25 mg/kg in C3H mice with transplantable murine solid tumor C3H mammary adenocarcinoma, doses administered intraperitoneally on days 1,3,5,7 and 9;Compound was tested on 10 mice.; type: functional, Mus musculus; conditions: route intraperitoneal
[11] = In vivo antitumor activity (toxic/total) at dose 25 mg/kg in C3H mice with transplantable murine solid tumor C3H mammary adenocarcinoma; Compound was tested on 10 mice.; type: functional, Mus musculus
[12] = In vivo antitumor activity (toxic/total) at dose 50 mg/kg in C3H mice with transplantable murine solid tumor C3H mammary adenocarcinoma, doses administered intraperitoneally on days 1,3,5,7 and 9;Compound was tested on 10 mice.; type: functional, Mus musculus; conditions: route intraperitoneal
[13] = In vivo antitumor activity (toxic/total) at dose 50 mg/kg in C3H mice with transplantable murine solid tumor C3H mammary adenocarcinoma; Compound was tested on 10 mice.; type: functional, Mus musculus
[14] = In vivo antitumor activity (toxic/total) at dose 6.25 mg/kg in C3H mice with transplantable murine solid tumor C3H mammary adenocarcinoma, doses administered intraperitoneally on days 1,3,5,7 and 9;Compound was tested on 10 mice.; type: functional, Mus musculus; conditions: route intraperitoneal
[15] = In vivo antitumor activity (toxic/total) at dose 6.25 mg/kg in C3H mice with transplantable murine solid tumor C3H mammary adenocarcinoma; Compound was tested on 10 mice.; type: functional, Mus musculus
[16] = In vivo antitumor avctivity (Toxic/total) at dose 100 mg/kg in C3H mice with transplantable murine solid tumor 6C3HED lymphosarcoma; Compound was tested on 10 mice.; type: functional, Mus musculus
[17] = In vivo antitumor avctivity (Toxic/total) at dose 12.5 mg/kg in C3H mice with transplantable murine solid tumor 6C3HED lymphosarcoma; Compound was tested on 10 mice.; type: functional, Mus musculus
[18] = In vivo antitumor avctivity (Toxic/total) at dose 25 mg/kg in C3H mice with transplantable murine solid tumor 6C3HED lymphosarcoma; Compound was tested on 10 mice.; type: functional, Mus musculus
[19] = In vivo antitumor avctivity (Toxic/total) at dose 50 mg/kg in C3H mice with transplantable murine solid tumor 6C3HED lymphosarcoma; Compound was tested on 10 mice.; type: functional, Mus musculus
[20] = In vivo antitumor avctivity (Toxic/total) at dose 6 mg/kg in C3H mice with transplantable murine solid tumor 6C3HED lymphosarcoma; Compound was tested on 10 mice.; type: functional, Mus musculus
[21] = system: CCRF-CEM; assay: Compound was tested for its antitumor activity against human lymphoblastic leukemic cells(CCRF-CEM) in vitro; type: functional, cell-based
[22] = In vivo anti tumor activity (toxic/total) at dose 200 mg/kg in C3H mice with transplantable murine solid tumor 6C3HED lymphosarcoma, doses administered intraperitoneally on days 1,3,5,7 and 9;Compound was tested on 10 mice.; type: functional, Mus musculus; conditions: route intraperitoneal
[23] = In vivo anti tumor activity (toxic/total) at dose 25 mg/kg in C3H mice with transplantable murine solid tumor 6C3HED lymphosarcoma, doses administered intraperitoneally on days 1,3,5,7 and 9;Compound was tested on 10 mice.; type: functional, Mus musculus; conditions: route intraperitoneal
[24] = Percent inhibition against C3H mammary adenocarcinoma at dose 100 mg/kg administered ip on days 1,3,5,7 and 9 in C3H mice; type: functional; conditions: Mus musculus, route intraperitoneal
[25] = Percent inhibition against C3H mammary adenocarcinoma at dose 12.5 mg/kg administered ip on days 1,3,5,7 and 9 in C3H mice; type: functional; conditions: Mus musculus, route intraperitoneal
[26] = Percent inhibition against C3H mammary adenocarcinoma at dose 25 mg/kg administered ip on days 1,3,5,7 and 9 in C3H mice; type: functional; conditions: Mus musculus, route intraperitoneal
[27] = Percent inhibition against C3H mammary adenocarcinoma at dose 25 mg/kg in C3H mice;Compound was toxic.; type: ADME, organism-based; parameters: dose 25 mg/kg; conditions: mouse, in vivo
[28] = Percent inhibition against C3H mammary adenocarcinoma at dose 50 mg/kg in C3H mice;Compound was toxic.; type: ADME, organism-based; parameters: dose 50 mg/kg; conditions: mouse, in vivo
[29] = Percent inhibition against C3H mammary adenocarcinoma at dose 6.25 mg/kg administered ip on days 1,3,5,7 and 9 in C3H mice; type: functional; conditions: Mus musculus, route intraperitoneal
[30] = Percent inhibition against C3H mammary adenocarcinoma at dose 6.25 mg/kg in C3H mice; type: functional; conditions: Mus musculus
[31] = In vivo anti tumor activity (toxic/total) at dose 100 mg/kg in C3H mice with transplantable murine solid tumor 6C3HED lymphosarcoma, doses administered intraperitoneally on days 1,3,5,7 and 9;Compound was tested on 9 mice.; type: functional, Mus musculus; conditions: route intraperitoneal
[32] = In vivo anti tumor activity (toxic/total) at dose 12.5 mg/kg in C3H mice with transplantable murine solid tumor 6C3HED lymphosarcoma, doses administered intraperitoneally on days 1,3,5,7 and 9;Compound was tested on 10 mice.; type: functional, Mus musculus; conditions: route intraperitoneal
[33] = system: 6C3HED; assay: Percent inhibition against 6C3HED lymphosarcoma at dose 6 mg/kg in C3H mice; type: functional; conditions: Mus musculus
[34] = Percent inhibition against C3H mammary adenocarcinoma at dose 50 mg/kg administered ip on days 1,3,5,7 and 9 in C3H mice; type: functional; conditions: Mus musculus, route intraperitoneal
[35] = as §4; type: functional; conditions: Mus musculus
[36] = as §1; type: functional; conditions: Mus musculus
[37] = as §2; type: functional; conditions: Mus musculus
[38] = In vivo anti tumor activity (toxic/total) at dose 12.5 mg/kg in C3H mice with transplantable murine solid tumor 6C3HED lymphosarcoma; Compound was tested on 10 mice.; type: functional, Mus musculus
[39] = In vivo anti tumor activity (toxic/total) at dose 25 mg/kg in C3H mice with transplantable murine solid tumor 6C3HED lymphosarcoma; Compound was tested on 10 mice.; type: functional, Mus musculus
[40] = In vivo anti tumor activity (toxic/total) at dose 50 mg/kg in C3H mice with transplantable murine solid tumor 6C3HED lymphosarcoma; Compound was tested on 10 mice.; type: functional, Mus musculus
[41] = Percent inhibition against C3H mammary adenocarcinoma at dose 12.5 mg/kg in C3H mice; type: functional; conditions: Mus musculus
[42] = Percent inhibition against C3H mammary adenocarcinoma at dose 25 mg/kg in C3H mice; type: functional; conditions: Mus musculus
[43] = In vivo anti tumor activity (toxic/total) at dose 100 mg/kg in C3H mice with transplantable murine solid tumor 6C3HED lymphosarcoma; Compound was tested on 10 mice.; type: functional, Mus musculus
[44] = as §3; type: functional; conditions: Mus musculus

Nc1nc(O)c2c(n1)NCC(CNc1ccc(C(=O)N[C@@H](CCC(=O)O)C(=O)O)cc1)C2 (stereo in doubt; 7a)
Inhibition ([1]; 100 mg/kg): 93%
inhibition in vivo at 100 mg/kg ([1]; Mus musculus, 6C3HED): 100%
Inhibition [2]: 100% and 34%
inhibition in vivo at 200 mg/kg [3]: 98%
Inhibition [4]: 100% and 51%
Inhibition [5]: 100% and 74%
tox/total [6]: 0
tox/total [7]: 0
tox/total [8]: 0
tox/total [9]: 10
tox/total [10]: 0
tox/total [11]: 10
tox/total [12]: 0
tox/total [13]: 10
tox/total [14]: 0
tox/total [15]: 3
tox/total [16]: 9
tox/total [17]: 1
tox/total [18]: 3
tox/total [19]: 6
tox/total [20]: 0
IC50 ([21]; Homo sapiens, CCRF-CEM): 10 nM
tox/total [22]: 3
tox/total [23]: 0
inhibition in vivo at 100 mg/kg [24]: 94%
inhibition in vivo at 12.5 mg/kg [25]: 61%
inhibition in vivo at 25 mg/kg [26]: 64%
Inhibition [27]: Toxic
Inhibition [28]: Toxic
inhibition in vivo at 6.25 mg/kg [29]: 50%
inhibition in vivo at 6.25 mg/kg [30]: 96%
tox/total [31]: 0
tox/total [32]: 0
inhibition in vivo at 6 mg/kg [33]: 77%
inhibition in vivo at 50 mg/kg [34]: 81%

Nc1nc(O)c2c(n1)NCC(CN(C=O)c1ccc(C(=O)N[C@@H](CCC(=O)O)C(=O)O)cc1)C2 (stereo in doubt; 7b)
inhibition in vivo at 50 mg/kg [35]: 100%
inhibition in vivo at 100 mg/kg [36]: 100%
inhibition in vivo at 12.5 mg/kg [37]: 95%
tox/total [9]: 0
tox/total [11]: 6
tox/total [13]: 10
IC50 ([21]; ccrf-cem): 50 nM
tox/total [38]: 1
tox/total [39]: 1
tox/total [40]: 5
inhibition in vivo at 12.5 mg/kg [41]: 86%
inhibition in vivo at 25 mg/kg [42]: 98%
Inhibition [28]: Toxic
tox/total [43]: 7
inhibition in vivo at 25 mg/kg [44]: 100%
